Measured values: patent publication US12427134B2, “Methods of reducing the risk of cardiovascular events in a subject with atrial fibrillation and/or atrial flutter” (priority 2019, dated 2025)
Like-named read-outs stand apart in the source and are kept apart here.

How the values were obtained:
[1] = test system: hypertriglyceridemic patients with cardiovascular disease or at high risk for cardiovascular disease; assay: REDUCE-IT: post hoc analyses of primary + risk and key secondary + risk composite endpoints (adding atrial fibrillation/flutter and bleeding); assay type: in vivo, human; details: ITT
[2] = test system: hypertriglyceridemic patients with cardiovascular disease or at high risk for cardiovascular disease; details: human, in vivo

Question: Which “AFib/AFlutter + MI + Stroke + Cardiac Arrest + Sudden Cardiac Death, Rate/1000 pt yrs” value [1] does the source give for `CC/C=C\C/C=C\C/C=C\C/C=C\C/C=C\CCCC(=O)OCC` [AMR101, eicosapentaenoic acid ethyl ester] here?
Answer: Its value is 29.4 /1000 pt yrs.

Question: And the “Key Secondary + AFib/AFlutter, Rate/1000 pt yrs” value [1]?
Answer: Its value is 33.1 /1000 pt yrs.

Question: And the “Key Secondary + Serious Bleeding, Rate/1000 pt yrs” value [1]?
Answer: Its value is 32.1 /1000 pt yrs.

Question: And the “Primary + AFib/AFlutter + Serious Bleeding, Rate/1000 pt yrs” value [1]?
Answer: Its value is 53.5 /1000 pt yrs.

Question: What about the “Primary + AFib/AFlutter, Rate/1000 pt yrs” value [1] of the same molecule?
Answer: The value was 49.0 /1000 pt yrs.

Question: What about the “Primary + Serious Bleeding, Rate/1000 pt yrs” value [1] of the same molecule?
Answer: Its value is 48.2 /1000 pt yrs.

Question: What about the “AFib/AFlutter + MI + Stroke + Cardiac Arrest + Sudden Cardiac Death, subjects with event” value ([1]; N = 4089) of the same molecule?
Answer: Its value is 491.

Question: What about the “AFib/AFlutter + MI + Stroke + Cardiac Arrest + Sudden Cardiac Death, subjects with event (%)” value ([1]; N = 4089) of the same molecule?
Answer: The value was 12.0%.

Question: And the “Key Secondary + AFib/AFlutter + Serious Bleeding, subjects with event” value ([1]; N = 4089)?
Answer: The value was 625.

Question: What about the “Key Secondary + AFib/AFlutter, subjects with event” value ([1]; N = 4089) of the same molecule?
Answer: The value was 552.

Question: What about the “Key Secondary + AFib/AFlutter, subjects with event (%)” value ([1]; N = 4089) of the same molecule?
Answer: Its value is 13.5%.

Question: What about the “Key Secondary + Serious Bleeding, subjects with event” value ([1]; N = 4089) of the same molecule?
Answer: Its value is 539.

Question: What about the “Key Secondary + Serious Bleeding, subjects with event (%)” value ([1]; N = 4089) of the same molecule?
Answer: Its value is 13.2%.

Question: What about the “Primary + AFib/AFlutter + Serious Bleeding, subjects with event” value ([1]; N = 4089) of the same molecule?
Answer: The value was 850.

Question: What about the “Primary + AFib/AFlutter + Serious Bleeding, subjects with event (%)” value ([1]; N = 4089) of the same molecule?
Answer: Its value is 20.8%.

Question: And the “Primary + AFib/AFlutter, subjects with event” value ([1]; N = 4089)?
Answer: The value was 785.

Question: And the “Primary + AFib/AFlutter, subjects with event (%)” value ([1]; N = 4089)?
Answer: The value was 19.2%.

Question: What about the “Primary + Serious Bleeding, subjects with event” value ([1]; N = 4089) of the same molecule?
Answer: Its value is 775.

Question: What about the “Primary + Serious Bleeding, subjects with event (%)” value ([1]; N = 4089) of the same molecule?
Answer: The value was 19.0%.

Question: What about the “AFib/AFlutter + MI + Stroke + Cardiac Arrest + Sudden Cardiac Death, HR (95% CI)” value ([1]; vs placebo) of the same molecule?
Answer: Its value is 0.789 (0.701, 0.889).

Question: And the “Key Secondary + AFib/AFlutter + Serious Bleeding, HR (95% CI)” value ([1]; vs placebo)?
Answer: Its value is 0.855 (0.768, 0.952).

Question: And the “Key Secondary + AFib/AFlutter, HR (95% CI)” value ([1]; vs placebo)?
Answer: The value was 0.818 (0.731, 0.916).

Question: What about the “Key Secondary + Serious Bleeding, HR (95% CI)” value ([1]; vs placebo) of the same molecule?
Answer: The value was 0.789 (0.704, 0.884).

Question: And the “Primary + AFib/AFlutter + Serious Bleeding, HR (95% CI)” value ([1]; vs placebo)?
Answer: The value was 0.830 (0.757, 0.910).

Question: And the “Primary + AFib/AFlutter, HR (95% CI)” value ([1]; vs placebo)?
Answer: Its value is 0.803 (0.731, 0.883).

Question: And the “Primary + Serious Bleeding, HR (95% CI)” value ([1]; vs placebo)?
Answer: The value was 0.785 (0.714, 0.863).

Question: And the “TEAE: Infections and infestations, %” value ([2]; female)?
Answer: The value was “(48.9) %”.

Question: And the “SAE class infections and infestations, patients” value [2]?
Answer: Its value is 8.1%.

Question: What about the “Serious adverse event - Infections and infestations (SOC), % patients” value [2] of the same molecule?
Answer: Its value is “(8.1) %”.

Question: And the “Serious adverse event - Infections and infestations (SOC), n patients” value [2]?
Answer: The value was 332.

Question: And the “Serious adverse event - Sepsis, % patients” value [2]?
Answer: The value was “(0.6) %”.

Question: What about the “Serious adverse event - Sepsis, n patients” value [2] of the same molecule?
Answer: Its value is 25.

Question: What about the “Serious adverse event - Urinary tract infection, % patients” value [2] of the same molecule?
Answer: The value was “(0.6) %”.

Question: What about the “Serious adverse event - Urinary tract infection, n patients” value [2] of the same molecule?
Answer: Its value is 25.

Question: What about the “Severe TEAE class infections and infestations, patients” value [2] of the same molecule?
Answer: Its value is 5.1%.

Question: And the “Severe TEAE: Infections and infestations, %” value [2]?
Answer: The value was “(5.1) %”.

Question: What about the “Severe TEAE: Sepsis, %” value [2] of the same molecule?
Answer: The value was “(0.5) %”.

Question: What about the “Severe TEAE: Urinary tract infection, %” value [2] of the same molecule?
Answer: Its value is “(0.3) %”.

Question: And the “TEAE class infections and infestations, patients” value [2]?
Answer: Its value is 44.6%.

Question: And the “TEAE: Upper respiratory tract infection, %” value [2]?
Answer: Its value is “(7.6) %”.

Question: And the “TEAE: Urinary tract infection, %” value [2]?
Answer: Its value is “(6.2) %”.

Question: What about the “TEAE: Infections and infestations, %” value ([2]; male) of the same molecule?
Answer: The value was “(42.8) %”.
